{"source": "paper PMC8864858", "about": "“Synthesis, in vitro biological evaluation and molecular modelling of new 2-chloro-3-hydrazinopyrazine derivatives as potent acetylcholinesterase inhibitors on PC12 cells” (BMC Chemistry, 2022)", "key": {"[1]": {"assay": "DPPH radical scavenging assay", "assay_type": "physicochemical", "settings": "for Scavenging activity on DPPH radical (in words): Fig. 3B", "experimental": "(§1) The radical scavenging activity of prepared compounds was assessed through using ABTS decolorization assay and method reported by Re et al. with few modifications. In this regard, ABTS solution was diluted with 80% ethanol to the absorbance of 0.70 ± 0.05 at 734 nm. After adding 100 µL of the obtained compounds in ethanol (1–30 µM) or ascorbic acid, absorbance was measured at exactly 20 min in the same wavelength. DPPH assay was based on the method provided by Ghafouri et al. with some modifications. Additionally, the quenching of free radicals by novel synthesized compounds was evaluated spectrophotometrically (UV–Vis Pharmacia Biotech Ultrospec 3000) at 517 nm against the absorbance of DPPH radical. Further, ferric reducing/antioxidant power (FRAP) assay was performed according to the previous study with some modifications, the principle of which was based on reducing a ferric 2,4,6-tris(2-pyridyl)-1,3,5-triazine (Fe^3+-TPTZ) to ferrous in the presence of prepared compounds. Finally, a standard curve was drawn by considering the different concentrations (10–1000 µM) of ferrous sulfate."}, "[2]": {"assay": "ABTS radical decolorization assay", "assay_type": "physicochemical", "settings": "final concentration 1–30 μM, absorbance at 734 nm", "experimental": "as §1"}, "[3]": {"molecular_target": "T1, AChE from Electrophorus electricus (Electrophorus electricus, UniProt O42275)", "T1 construct": "purchased Sigma", "T1 sequence (O42275 24-633)": "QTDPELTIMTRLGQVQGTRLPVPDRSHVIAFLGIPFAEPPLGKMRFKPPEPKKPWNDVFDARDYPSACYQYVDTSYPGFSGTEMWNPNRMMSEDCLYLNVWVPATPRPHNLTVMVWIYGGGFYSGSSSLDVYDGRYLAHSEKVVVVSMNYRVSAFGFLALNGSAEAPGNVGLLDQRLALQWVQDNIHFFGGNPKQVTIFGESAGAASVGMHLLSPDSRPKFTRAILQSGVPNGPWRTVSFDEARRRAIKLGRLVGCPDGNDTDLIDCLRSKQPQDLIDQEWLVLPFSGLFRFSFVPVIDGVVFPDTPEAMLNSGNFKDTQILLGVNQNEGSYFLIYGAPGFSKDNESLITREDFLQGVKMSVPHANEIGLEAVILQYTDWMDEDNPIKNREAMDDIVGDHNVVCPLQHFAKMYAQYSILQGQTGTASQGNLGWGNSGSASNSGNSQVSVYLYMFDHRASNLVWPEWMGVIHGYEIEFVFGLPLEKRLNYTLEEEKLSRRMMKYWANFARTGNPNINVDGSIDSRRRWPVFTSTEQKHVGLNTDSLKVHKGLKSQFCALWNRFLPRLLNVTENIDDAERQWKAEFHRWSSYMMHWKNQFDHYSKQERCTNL", "assay": "biochemical", "settings": "Ellman method, compounds 0.1–10 µM, triplicate; read-out: IC50 against AChE activity", "experimental": "The AChE inhibitory activity of all synthesized novel derivatives and their controls was evaluated through using the Ellman method. […] Each concentration was assayed in triplicate. […] Finally, absorbance was recorded by using a Pharmacia Biotech Ultrospec 3000 UV–Vis spectrophotometer at 410 nm."}, "[4]": {"assay": "Ferric reducing/antioxidant power (FRAP) assay", "assay_type": "physicochemical", "settings": "for Antioxidant effect in FRAP (in words): Fig. 3C", "experimental": "as §1"}, "PC12 cells [5]": {"test_system": "PC12 cells", "assay": "Cell viability of PC12 cells treated with CHP4 (MTT)", "assay_type": "cell-based", "settings": "concentrations of 0–100 μM; 24 and 48 h", "experimental": "Rattus norvegicus pheochromocytoma PC12 cells (Pastor Institute, Iran) were cultured in the Dulbecco's Modified Eagle's Medium (DMEM) containing 10% fetal bovine serum (FBS) and 1% penicillin/streptomycin (Gibco) at 37 °C with 5% CO2. In order to examine the role of CHP4, PC12 cells were treated with the different concentrations (10–100 µM) of CHP4 for 24 and 48 h. […] Furthermore, […] 10 µL of 0.5 mg/mL MTT stock solution were added to each well containing about 1 mL of medium and the mixture was incubated for 4 h. Then, the plates were agitated on a plate shaker for 30 min and optical density was read at 570 nm by using an ELISA reader (Biotech)."}, "PC12 cells [6]": {"test_system": "PC12 cells", "assay": "Ab1-42-induced cytotoxicity in PC12 cells, neuroprotection (MTT)", "assay_type": "cell-based", "settings": "100 µM Ab1-42, 24 h", "protocol": "Rattus norvegicus pheochromocytoma PC12 cells (Pastor Institute, Iran) were cultured in the Dulbecco's Modified Eagle's Medium (DMEM) containing 10% fetal bovine serum (FBS) and 1% penicillin/streptomycin (Gibco) at 37 °C with 5% CO2. […] Furthermore, 50 µL of DMSO and 10 µL of 0.5 mg/mL MTT stock solution were added to each well containing about 1 mL of medium and the mixture was incubated for 4 h. Then, the plates were agitated on a plate shaker for 30 min and optical density was read at 570 nm by using an ELISA reader (Biotech)."}, "Tau-p": {"test_system": "Tau-p", "assay": "Western blot analysis of Tau-p in PC12 cells", "assay_type": "cell-based, Rattus norvegicus", "settings": "PC12 cells in presence of Ab1-42; CHP4 at 20 and 30 µM, 24 h", "experimental": "(§2) To this end, the cells were seeded in the 6-well plate and treated with 20 and 30 µM CHP4 for 24 h. Additionally, they were washed with cold PBS, followed by lysing with lysis buffer (20 mM Tris (pH 7.5), 150 mM NaCl, 1 mM EDTA, 1% NP-40, 0.5% sodium deoxycholate, 0.1% SDS, 50 mM Tris, protease and phosphatase inhibitor cocktails) for 30 min on ice. After centrifuging lysates at 4 °C in 12,000g for 10 min, the supernatants were transferred to new tubes. Protein concentration was detected through using the Bradford assay. Further, the denatured proteins was resolved on SDS-PAGE, transferred onto PVDF membranes (Millipore, Billerica, MA, USA), and blocked with 5% nonfat dry milk in the PBS containing 0.1% Tween-20 (PBST). Then, the membranes were incubated with the rabbit primary antibodies against Tau-p, HSP70, and β-actin (as a control group) overnight at 4 °C, and exposed with the horseradish peroxidase (HRP)-conjugated second antibody for 2 h at room temperature. Finally, the density of relative protein bands was determined through densitometric scanning the blots by using Image-J program."}, "HSP70": {"test_system": "HSP70", "assay": "Western blot analysis of HSP70 in PC12 cells", "assay_type": "cell-based, Rattus norvegicus", "settings": "PC12 cells in presence of Ab1-42; CHP4 30 μM (b1)", "experimental": "as §2"}}, "note": "“Also recorded” adds a separate entry of the source.", "data": [{"smiles": "Cc1ccc2occ(/C=N/Nc3nccnc3Cl)c(=O)c2c1", "note": "[CHP2, (E)-3-((2-(3-chloropyrazin-2-yl)hydrazineylidene)methyl)-6-methyl-4H-chromen-4-one]", "values": [{"measurement": "IC50", "setting": "[1]; 517 nm", "value": 26, "unit": "µM"}, {"measurement": "Scavenging activity on DPPH radical (in words)", "setting": "[1]", "value": "highest scavenging activity"}]}, {"smiles": "COc1ccc(/C=N/Nc2nccnc2Cl)cc1", "note": "[CHP1, (E)-2-chloro-3-(2-(4-methoxybenzylidene) hydrazinyl) pyrazine]", "values": [{"measurement": "ABTS radical scavenging activity (inhibition)", "setting": "[2]", "value": 48, "unit": "%"}, {"measurement": "Scavenging activity on DPPH radical (in words)", "setting": "[1]", "value": "moderate"}]}, {"smiles": "Oc1cccc(/C=N/Nc2nccnc2Cl)c1", "note": "[CHP3, (E)-3-((2-(3-chloropyrazin-2-yl)hydrazineylidene)methyl)phenol]", "values": [{"measurement": "Scavenging activity on DPPH radical (in words)", "setting": "[1]", "value": "highest scavenging activity"}]}, {"smiles": "Clc1ccc(/C=N/Nc2nccnc2Cl)cc1", "note": "[CHP5, (E)-2-chloro-3-(2-(4-chlorobenzylidene)hydrazineyl)pyrazine]", "values": [{"measurement": "IC50", "setting": "[3]", "value": 4.2, "unit": "µM"}, {"measurement": "Scavenging activity on DPPH radical (in words)", "setting": "[1]", "value": "low"}, {"measurement": "Antioxidant effect in FRAP (in words)", "setting": "[4]", "value": "least"}]}, {"smiles": "Oc1ccccc1/C=N/Nc1nccnc1Cl", "note": "[CHP4, (E)-2-((2-(3-chloropyrazin-2-yl)hydrazineylidene)methyl)phenol]", "values": [{"measurement": "IC50", "setting": "[3]", "value": 3.76, "unit": "µM"}, {"measurement": "Scavenging activity on DPPH radical (in words)", "setting": "[1]", "value": "highest scavenging activity"}, {"measurement": "Antioxidant effect in FRAP (in words)", "setting": "[4]", "value": "highest"}, {"measurement": "Ability for Fe3+ reduction (FRAP)", "setting": "[4]; printed as 3.016 per 1 mM, concentration of Fe2+", "value": 3.016}, {"measurement": "Toxicity in PC12 cells", "setting": "PC12 cells [5]", "value": "non-toxic"}, {"measurement": "Effect on Ab1-42-induced cell death", "setting": "PC12 cells [6]", "value": "significantly reduced the Ab1-42-induced cell death in a dose-dependent manner"}, {"measurement": "Tau-p expression (western blot)", "setting": "Tau-p", "value": "clearly decreased"}, {"measurement": "HSP70 expression (western blot)", "setting": "HSP70", "value": "significantly increased; also recorded: increased HSP70 expression"}]}]}
